Measurements published in EP4501942A1, “PEPTIDOMIMETICS WITH ANTIVIRAL ACTIVITY” (priority 2023, dated 2025).
Where two headings read alike, the source gives them in different places.

Legend:
[1] = test system: GFP-expressing recombinant vesicular stomatitis virus (VSV-GFP); test: microbe, parasite or virus in culture; format: cell-based; settings: A549-ACE2, 16 h
in vitro [2] = settings: human
SARS-CoV-2 M^pro protein = SARS-CoV-2 M^pro protein (Severe acute respiratory syndrome coronavirus 2, UniProt P0DTD1); test: biochemical; settings: for IC50: three separate experiments in duplicate, read-out: IC50, mean±SD; for inhibition at 10 µM: read-out: % of inhibition at 10 µM
SARS-CoV-2 = test: microbe, parasite or virus in culture; format: cell-based
[3] = Cytotoxicity MTT assay in uninfected A549-ACE2 cells; format: cell-based; settings: human
Procedure: To evaluate the cytotoxicity profile of the compounds MTT assays were performed in A549-ACE2 cells. Uninfected cells were incubated with a range of compound concentrations (from 100 to 1 µM) for forty-eight hours, time at which the MTT substrate [3-(4,5-dimethylthiazol-2-yl)-2,5-diphenyltetrazolium bromide] was added and the formation of formazan precipitates was evaluated two hours later, using a colorimetric readout. Vehicle-treated (DMSO) cells were used as reference (100 %).

in vitro [4] = test: in vitro
[5] = Severe acute respiratory syndrome coronavirus 2, SARS-CoV-2, A549-ACE2 cells, MOI 0.005, 48 h, read-out: EC50
[6] = Severe acute respiratory syndrome coronavirus 2, SARS-CoV-2, A549-ACE2 cells, MOI 0.005, 48 h, read-out: EC90
[7] = isolated SARS-CoV-2 M^pro, compound at 10 µM
[8] = Severe acute respiratory syndrome coronavirus 2, A549-ACE2, 48 h

Row | Compound | IC50 (SARS-CoV-2 M^pro protein; isolated SARS-CoV-2 M^pro) [µM] | EC50 (SARS-CoV-2; [5]) [µM] | EC90 (SARS-CoV-2; [6]) [µM] | CC50 at 48 h [3] [µM] | also measured
1 | Cc1c(-c2ccc(-c3ccccc3F)cc2)nc2ccc(F)cc2c1C(=O)O [Brequinar, reference compound] | – | – | – | – | EC50 [1]: < 0.6 µM; EC90 [1]: < 0.6 µM; CC50 (in vitro [2]): > 50 µM
2 | CC(C)C[C@@]1(C(=O)N[C@H](C#N)C[C@@H]2CCNC2=O)[C@H](C)CN1C(=O)[C@@H](NC(=O)OCc1ccccc1)C(C)C [Example 1] | 1.99 ± 1 | 5 | 20 | > 100 | –
3 | CC(C)C[C@]1(C(=O)N[C@H](C#N)C[C@@H]2CCNC2=O)[C@@H](C)CN1C(=O)[C@@H](NC(=O)OCc1ccccc1)C(C)C [Example 2] | – | – | – | – | inhibition at 10 µM (SARS-CoV-2 M^pro protein; [7]): 0%
4 | CC(C)C[C@@]1(C(=O)N[C@H](C#N)C[C@@H]2CCNC2=O)[C@H](C)CN1C(=O)[C@@H](NC(=O)C(F)(F)F)C(C)C [Example 3] | 2.58 ± 0.48 | 10 | 32 | 100 | –
5 | CC(C)C[C@]1(C(=O)N[C@H](C#N)C[C@@H]2CCNC2=O)[C@@H](C)CN1C(=O)[C@@H](NC(=O)C(F)(F)F)C(C)C [Example 4] | – | – | – | – | inhibition at 10 µM (SARS-CoV-2 M^pro protein; [7]): 0%
6 | CC(C)[C@H](NC(=O)OCc1ccccc1)C(=O)N1C[C@@H](C)[C@@]1(Cc1ccccc1)C(=O)N[C@H](C#N)C[C@@H]1CCNC1=O [Example 5] | 0.13 ± 0.03 | 1 | 6 | > 100 | –
7 | CC(C)[C@H](NC(=O)C(F)(F)F)C(=O)N1C[C@@H](C)[C@@]1(Cc1ccccc1)C(=O)N[C@H](C#N)C[C@@H]1CCNC1=O [Example 7] | 0.2 ± 0.03 | 2 | 12 | > 100 | –
8 | CC(C)C(NC(=O)C1CC1)C(=O)N1CC(C)C1(Cc1ccccc1)C(=O)NC(C#N)CC1CCNC1=O [Example 8, Cyclopropylcarbonyl-L-Val-(αS,β'R)-Azf-NH[(1S)-1-cyano-2-[(3'S)-2'-oxopyrrolidin-3'-yl]ethane] | 0.39 ± 0.05 | 8 | 31 | > 100 | –
9 | CC(C)[C@H](NC(=O)OCc1ccccc1)C(=O)N1C[C@@H](C)[C@@]1(Cc1ccc(O)cc1)C(=O)N[C@H](C#N)C[C@@H]1CCNC1=O [Example 9] | 6.43 ± 0.53 | – | – | – | –
10 | CC(C)[C@H](NC(=O)OCc1ccccc1)C(=O)N1C[C@@H](C)[C@@]1(Cc1ccc(OC(C)(C)C)cc1)C(=O)N[C@H](C#N)C[C@@H]1CCNC1=O [Example 10] | – | – | – | – | inhibition at 10 µM (SARS-CoV-2 M^pro protein): 9%
11 | CC(C)[C@H](NC(=O)OCc1ccccc1)C(=O)N1C[C@@H](C)[C@@]1(Cc1c[nH]c2ccccc12)C(=O)N[C@H](C#N)C[C@@H]1CCNC1=O [Example 11] | 4.74 ± 0.81 | 31 | 48 | > 100 | –
12 | CC(C)C[C@@]1(C(=O)N[C@H](C#N)C[C@@H]2CCNC2=O)[C@H](C)CN1C(=O)[C@@H](NC(=O)OC(C)(C)C)C(C)(C)C [Example 12] | 4.7 ± 0.76 | 29 | > 50 | 100 | –
13 | C[C@@H]1CN(C(=O)[C@@H](NC(=O)OCc2ccccc2)C(C)(C)C)[C@]1(Cc1ccccc1)C(=O)N[C@H](C#N)C[C@@H]1CCNC1=O [Example 13] | – | 4 | 15 | > 100 | –
14 | C[C@@H]1CN(C(=O)[C@@H](NC(=O)C(F)(F)F)C(C)(C)C)[C@]1(Cc1ccccc1)C(=O)N[C@H](C#N)C[C@@H]1CCNC1=O [Example 15] | – | 2 | 13 | > 100 | –
15 | COC(=O)N[C@H](C(=O)N1C[C@@H](C)[C@@]1(Cc1ccccc1)C(=O)N[C@H](C#N)C[C@@H]1CCNC1=O)C(C)(C)C [Example 16] | 0.94 ± 0.17 | 3 | 20 | > 100 | –
16 | Cc1ccc(OCC(=O)N[C@H](C(=O)N2C[C@@H](C)[C@@]2(Cc2ccccc2)C(=O)N[C@H](C#N)C[C@@H]2CCNC2=O)C(C)(C)C)cc1 [Example 17] | 1.03 | 3 | 18 | 100 | –
17 | C[C@@H]1CN(C(=O)[C@@H](NC(=O)OCC(F)F)C(C)(C)C)[C@]1(Cc1ccccc1)C(=O)N[C@H](C#N)C[C@@H]1CCNC1=O [Example 18] | – | 4 | 7 | > 100 | –
18 | C[C@@H]1CN(C(=O)[C@H](CCCCNC(=O)OC(C)(C)C)NC(=O)OCc2ccccc2)[C@]1(Cc1ccccc1)C(=O)N[C@H](C#N)C[C@@H]1CCNC1=O [Example 20] | – | 7 | 18 | 100 | –

Row | Compound | IC50 (SARS-CoV-2 M^pro protein; isolated SARS-CoV-2 M^pro) [µM] | EC50 (SARS-CoV-2; [5]) [µM] | EC90 (SARS-CoV-2; [6]) [µM] | CC50 at 48 h [3] [µM] | also measured
19 | C[C@@H]1CN(C(=O)[C@H](CCCCN)NC(=O)OCc2ccccc2)[C@]1(Cc1ccccc1)C(=O)N[C@H](C#N)C[C@@H]1CCNC1=O [Example 21] | 3.66 | – | – | – | –
20 | C[C@@H]1CN(C(=O)[C@@H](NC(=O)OCc2ccccc2)C(C)(C)C)[C@]1(CCCCNC(=O)OC(C)(C)C)C(=O)N[C@H](C#N)C[C@@H]1CCNC1=O [Example 22] | – | – | – | – | inhibition at 10 µM (SARS-CoV-2 M^pro protein): 16%
21 | C[C@@H]1CN(C(=O)[C@@H](NC(=O)OCc2ccccc2)C(C)(C)C)[C@]1(CCCCN)C(=O)N[C@H](C#N)C[C@@H]1CCNC1=O [Example 23] | – | – | – | – | inhibition at 10 µM (SARS-CoV-2 M^pro protein): 0%
22 | C[C@@H]1CN(C(=O)[C@@H](NC(=O)OCc2ccccc2)C(C)(C)C)[C@]1(Cc1ccccc1)C(=O)N[C@H](C#N)Cc1c[nH]cn1 [Example 24] | – | 18 | 40 | > 100 | inhibition at 10 µM (SARS-CoV-2 M^pro protein): 10%
23 | CC(C)[C@@H](CC(=O)N1C[C@@H](C)[C@@]1(Cc1ccccc1)C(=O)N[C@H](C#N)C[C@@H]1CCNC1=O)NC(=O)OC(C)(C)C [Example 26] | – | – | – | – | inhibition at 10 µM (SARS-CoV-2 M^pro protein): 28%
24 | CC(C)C[C@@]1(C(=O)N[C@H](C=O)C[C@@H]2CCNC2=O)[C@H](C)CN1C(=O)[C@@H](NC(=O)OCc1ccccc1)C(C)C [Example 27, Z-L-Val-(αS,β'R)-Azl-L-Ala(3S-2-oxopyrrolidin-3-yl)-H] | 0.077 ± 0.02 | 1 | 5 | > 100 | EC50 [1]: > 50 µM; EC90 [1]: > 50 µM; CC50 (in vitro [2]): > 50 µM
25 | CC(C)[C@H](NC(=O)OCc1ccccc1)C(=O)N1C[C@@H](C)[C@@]1(Cc1ccccc1)C(=O)N[C@H](C=O)C[C@@H]1CCNC1=O [Example 28, Z-L-Val-(αS,β'R)-Azf-L-Ala(3S-2-oxopyrrolidin-3-yl)-H] | 0.005 ± 0.002 | 2 | 12 | > 100 | –
26 | COC(=O)N[C@H](C(=O)N1C[C@@H](C)[C@@]1(Cc1ccccc1)C(=O)N[C@H](C=O)C[C@@H]1CCNC1=O)C(C)(C)C [Example 30, Methyloxycarbonyl-L-Tbg-(αS,β'R)-Azf-L-Ala(3S-2-oxopyrrolidin-3-yl)-CHO] | 0.048 ± 0.004 | 15 | 25 | > 100 | –
27 | C[C@@H]1CN(C(=O)[C@@H](NC(=O)OCC(F)F)C(C)(C)C)[C@]1(Cc1ccccc1)C(=O)N[C@H](C=O)C[C@@H]1CCNC1=O [Example 31, 2,2-Difluoroethyloxycarbonyl-L-Tbg-(αS,β'R)-Azf-L-Ala(3S-2-oxopyrrolidin-3-yl)-H] | 0.024 ± 0.002 | 3 | 11 | > 100 | –
28 | C[C@@H]1CN(C(=O)[C@@H](NC(=O)OC(C)(C)C)C(C)(C)C)[C@]1(Cc1ccccc1)C(=O)N[C@H](/C=C/C(=O)OCc1ccccc1)C[C@@H]1CCNC1=O [Example 32] | – | – | – | – | inhibition at 10 µM (SARS-CoV-2 M^pro protein): 40%
29 | CC(C)C[C@@]1(C(=O)N[C@H](C#N)C[C@@H]2CCNC2=O)[C@H](C)CN1C(=O)[C@@H](NC(=O)OCC(F)F)C(C)(C)C [Example 33] | 5.94 ± 0.69 | 16 | > 25 | > 100 | –
30 | CCCC[C@@H](C#N)NC(=O)[C@]1(CC(C)C)[C@H](C)CN1C(=O)[C@@H](NC(=O)OC(C)(C)C)C(C)(C)C [Example 34, Boc-L-Tbg-(aS,β'R)-Azl-NH-[(1S)-1-cyano]pentane] | – | – | – | – | inhibition at 10 µM (SARS-CoV-2 M^pro protein): 0%; CC50 (in vitro [4]): > 50 µM
31 | C[C@@H]1CN(C(=O)[C@@H](NC(=O)OC(C)(C)C)C(C)(C)C)[C@]1(CC1CCCCC1)C(=O)N[C@H](C#N)C[C@@H]1CCNC1=O [Example 35] | – | 3 | 20 | > 100 | –
32 | C[C@@H]1CN(C(=O)[C@@H](NC(=O)OCC(F)F)C(C)(C)C)[C@]1(CC1CCCCC1)C(=O)N[C@H](C#N)C[C@@H]1CCNC1=O [Example 37] | – | 4 | 22 | > 100 | –
33 | C[C@@H]1CN(C(=O)[C@@H](NC(=O)C(F)(F)F)C(C)(C)C)[C@]1(CC1CCCCC1)C(=O)N[C@H](C#N)C[C@@H]1CCNC1=O [Example 38] | 2.36 ± 0.75 | 25 | > 25 | > 100 | –
34 | CC(C)[C@H](NC(=O)OCC(F)F)C(=O)N1C[C@@H](C)[C@@]1(Cc1ccccc1)C(=O)N[C@H](C#N)C[C@@H]1CCNC1=O [Example 39] | – | 0.4 | 2 | > 50 | –
35 | CC(C)(C)[C@@H]1NC(=O)O[C@@H]2CCC[C@H]2OC/C=C/C(F)(F)c2nc3ccccc3nc2O[C@@H]2C[C@@H](C(=O)N[C@]3(C(=O)NS(=O)(=O)C4(C)CC4)C[C@H]3C(F)F)N(C2)C1=O [Glecaprevir, reference compound] | – | – | – | – | CC50 (in vitro [4]): > 50 µM
36 | CC(C)(C)[C@H](NC(=O)C(F)(F)F)C(=O)N1C[C@H]2[C@@H]([C@H]1C(=O)N[C@H](C#N)C[C@@H]1CCNC1=O)C2(C)C [PF-07321332, nirmatrelvir, reference compound] | – | – | – | 100 | EC50 (SARS-CoV-2; [8]): < 0.2 µM; EC90 (SARS-CoV-2; [8]): < 0.2 µM
